Measurements from patent US10011607B2, “Ethynyl derivatives” (Hoffmann-La Roche Inc., priority 2015, dated 2018).

Biological target: human mGlu4 receptor (Homo sapiens (Human), UniProt Q14833)
Assay: Ca2+ mobilization in vitro assay on recombinant human mGlu4 expressed in HEK293 cells (PAM)
Format: cell-based
Conditions: for Emax: HEK293, maximal response in % of maximal stimulatory effect of saturating L-AP4, read-out: Eff. (%); for EC50: HEK293 cells, human mGlu4, in presence of EC20 of L-AP4, read-out: EC50 (nM) mGlu4PAM
Excerpt: FIG. 1: Illustrates the experimental outline for mGlu4 PAM Ca^2+ mobilization screening assay and the determination of EC50 and % Emax values. […] A depression of the signal observed after addition of the EC20 concentration of L-AP4 was indicative of an inhibitory activity of the test compound.
Determination of EC50 Values Using a Ca2+ Mobilization In Vitro Assay on Recombinant Human mGlu4 Expressed in HEK293 Cells:
A monoclonal HEK-293 cell line stably transfected with a cDNA encoding for the human mGlu4 receptor was generated; for the work with mGlu4 Positive Allosteric Modulators (PAMs), a cell line with low receptor expression levels and low constitutive receptor activity was selected to allow the differentiation of agonistic versus PAM activity. Cells were cultured according to standard protocols (Freshney, 2000) in Dulbecco's Modified Eagle Medium with high glucose supplemented with 1 mM glutamine, 10% (vol/vol) heat-inactivated bovine calf serum, Penicillin/Streptomycin, 50 μg/ml hygromycin and 15 μg/ml blasticidin (all cell culture reagents and antibiotics from Invitrogen, Basel, Switzerland).
About 24 hrs before an experiment, 5×10^4 cells/well were seeded in poly-D-lysine coated, black/clear-bottomed 96-well plates. The cells were loaded with 2.5 μM Fluo-4AM in loading buffer (1×HBSS, 20 mM HEPES) for 1 hr at 37° C. and washed five times with loading buffer. The cells were transferred into a Functional Drug Screening System 7000 (Hamamatsu, Paris, France), and 11 half logarithmic serial dilutions of test compound at 37° C. were added and the cells were incubated for 10-30 min. with on-line recording of fluorescence. Following this pre-incubation step, the agonist (2S)-2-amino-4-phosphonobutanoic acid (L-AP4) was added to the cells at a concentration corresponding to EC20 with on-line recording of fluorescence; in order to account for day-to-day variations in the responsiveness of cells, the EC20 of L-AP4 was determined immediately ahead of each experiment by recording of a full dose-response curve of L-AP4.
Responses were measured as peak increase in fluorescence minus basal (i.e. fluorescence without addition of L-AP4), normalized to the maximal stimulatory effect obtained with saturating concentrations of L-AP4. Graphs were plotted with the % maximal stimulatory using XLfit, a curve fitting program that iteratively plots the data using Levenburg Marquardt algorithm. The single site competition analysis equation used was y=A+((B−A)/(1+((x/C)D))), where y is the % maximal stimulatory effect, A is the minimum y, B is the maximum y, C is the EC50, x is the log 10 of the concentration of the competing compound and D is the slope of the curve (the Hill Coefficient). From these curves the EC50 (drug concentration at which 50% of the maximal receptor activation was achieved), the Hill coefficient as well as the maximal response in % of the maximal stimulatory effect obtained with saturating concentrations of L-AP4 were calculated (see FIG. 1).

Sequence of human mGlu4 receptor (Q14833 33-912): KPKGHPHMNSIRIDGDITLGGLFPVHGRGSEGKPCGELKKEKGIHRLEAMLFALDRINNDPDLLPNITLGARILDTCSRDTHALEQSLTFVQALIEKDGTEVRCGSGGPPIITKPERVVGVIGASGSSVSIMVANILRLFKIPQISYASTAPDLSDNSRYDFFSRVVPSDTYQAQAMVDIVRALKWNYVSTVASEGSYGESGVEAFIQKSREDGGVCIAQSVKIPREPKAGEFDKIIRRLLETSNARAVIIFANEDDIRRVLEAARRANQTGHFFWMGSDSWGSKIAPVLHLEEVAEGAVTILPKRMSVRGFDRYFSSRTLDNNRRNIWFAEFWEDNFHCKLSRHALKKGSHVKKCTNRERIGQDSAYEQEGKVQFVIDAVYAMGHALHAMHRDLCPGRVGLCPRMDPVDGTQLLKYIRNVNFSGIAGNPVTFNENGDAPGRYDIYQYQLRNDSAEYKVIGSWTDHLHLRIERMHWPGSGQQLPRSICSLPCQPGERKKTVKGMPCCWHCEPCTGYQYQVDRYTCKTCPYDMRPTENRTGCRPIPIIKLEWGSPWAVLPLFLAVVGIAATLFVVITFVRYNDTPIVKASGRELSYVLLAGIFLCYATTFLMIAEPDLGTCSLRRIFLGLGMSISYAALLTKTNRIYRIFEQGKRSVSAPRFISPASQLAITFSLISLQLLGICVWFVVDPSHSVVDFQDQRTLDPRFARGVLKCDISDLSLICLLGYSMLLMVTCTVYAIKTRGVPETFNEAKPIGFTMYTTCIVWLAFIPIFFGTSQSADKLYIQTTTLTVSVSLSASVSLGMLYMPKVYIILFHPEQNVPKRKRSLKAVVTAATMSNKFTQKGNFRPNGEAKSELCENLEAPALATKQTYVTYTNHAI

In the case of CC12CC(=O)N(c3c(F)cc(C#Cc4ccccc4)cc3Cl)C(=O)N1CCN(c1ccccn1)C2=O (racemic) [Example 76, (9aRS)-7-[2-chloro-6-fluoro-4-(2-phenylethynyl)phenyl]-9a-methyl-2-(2-pyridyl)-4,9-dihydro-3H-pyrazino[1,2-c]pyrimidine-1,6,8-trione], the Emax is reported as 150% and the EC50 is reported as 128 nM.

Cn1cc(N2CCN3C(=O)N(c4c(F)cc(C#Cc5ccccc5)cc4Cl)C(=O)CC3(C)C2=O)cn1 (racemic) [Example 77, (9aRS)-7-[2-chloro-6-fluoro-4-(2-phenylethynyl)phenyl]-9a-methyl-2-(1-methylpyrazol-4-yl)-4,9-dihydro-3H-pyrazino[1,2-c]pyrimidine-1,6,8-trione] gave an Emax of 111% and an EC50 of 104 nM.

In the case of Cc1cccc(CN2CCN3C(=O)N(c4c(F)cc(C#Cc5ccccc5)cc4F)C(=O)CC3(C)C2=O)c1 (racemic) [Example 83, (9aRS)-7-[2,6-difluoro-4-(2-phenylethynyl)phenyl]-9a-methyl-2-(m-tolylmethyl)-4,9-dihydro-3H-pyrazino[1,2-c]pyrimidine-1,6,8-trione], the Emax is reported as 79% and the EC50 is reported as 173 nM.

Compound Cc1ccc(CN2CCN3C(=O)N(c4c(F)cc(C#Cc5ccccc5)cc4F)C(=O)CC3(C)C2=O)cc1 (racemic) [Example 84, (9aRS)-7-[2,6-difluoro-4-(2-phenylethynyl)phenyl]-9a-methyl-2-(p-tolylmethyl)-4,9-dihydro-3H-pyrazino[1,2-c]pyrimidine-1,6,8-trione] has an Emax of 87% and an EC50 of 117 nM.

Cc1ccccc1CN1CCN2C(=O)N(c3c(F)cc(C#Cc4ccccc4)cc3F)C(=O)CC2(C)C1=O (racemic) [Example 85, (9aRS)-7-[2,6-difluoro-4-(2-phenylethynyl)phenyl]-9a-methyl-2-(o-tolylmethyl)-4,9-dihydro-3H-pyrazino[1,2-c]pyrimidine-1,6,8-trione] was tested, and the Emax was 83% and the EC50 was 205 nM.

Cc1cccc(C)c1CN1CCN2C(=O)N(c3c(F)cc(C#Cc4ccccc4)cc3F)C(=O)CC2(C)C1=O (racemic) [Example 86, (9aRS)-7-[2,6-difluoro-4-(2-phenylethynyl)phenyl]-2-[(2,6-dimethylphenyl)methyl]-9a-methyl-4,9-dihydro-3H-pyrazino[1,2-c]pyrimidine-1,6,8-trione] was tested, and the Emax was 118% and the EC50 was 68 nM.

Compound CC12CC(=O)N(c3c(F)cc(C#Cc4ccccc4)cc3F)C(=O)N1CCN(Cc1ccccc1Cl)C2=O (racemic) [Example 87, (9aRS)-2-[(2-chlorophenyl)methyl]-7-[2,6-difluoro-4-(2-phenylethynyl)phenyl]-9a-methyl-4,9-dihydro-3H-pyrazino[1,2-c]pyrimidine-1,6,8-trione] has an Emax of 131% and an EC50 of 87 nM.

Work on CC12CC(=O)N(c3c(F)cc(C#Cc4ccccc4)cc3F)C(=O)N1CCN(Cc1cccc(Cl)c1)C2=O (racemic) [Example 88, (9aRS)-2-[(3-chlorophenyl)methyl]-7-[2,6-difluoro-4-(2-phenylethynyl)phenyl]-9a-methyl-4,9-dihydro-3H-pyrazino[1,2-c]pyrimidine-1,6,8-trione] yielded an Emax of 134% and an EC50 of 73 nM.

For CC12CC(=O)N(c3c(F)cc(C#Cc4ccccc4)cc3F)C(=O)N1CCN(Cc1ccccn1)C2=O (racemic) [Example 92, (9aRS)-7-[2,6-difluoro-4-(2-phenylethynyl)phenyl]-9a-methyl-2-(2-pyridylmethyl)-4,9-dihydro-3H-pyrazino[1,2-c]pyrimidine-1,6,8-trione], the Emax was 91% and the EC50 was 198 nM.

Compound CC12CC(=O)N(c3c(F)cc(C#Cc4ccccc4)cc3F)C(=O)N1CCN(Cc1cccnc1)C2=O (racemic) [Example 93, (9aRS)-7-[2,6-difluoro-4-(2-phenylethynyl)phenyl]-9a-methyl-2-(3-pyridylmethyl)-4,9-dihydro-3H-pyrazino[1,2-c]pyrimidine-1,6,8-trione] has an Emax of 90% and an EC50 of 217 nM.

CC12CC(=O)N(c3c(F)cc(C#Cc4ccccc4)cc3F)C(=O)N1CCN(Cc1ccncc1)C2=O (racemic) [Example 94, (9aRS)-7-[2,6-difluoro-4-(2-phenylethynyl)phenyl]-9a-methyl-2-(4-pyridylmethyl)-4,9-dihydro-3H-pyrazino[1,2-c]pyrimidine-1,6,8-trione] showed an Emax of 84% and an EC50 of 127 nM.

CC12CC(=O)N(c3c(F)cc(C#Cc4ccccc4)cc3F)C(=O)N1CCN(Cc1ccncn1)C2=O (racemic) [Example 95, (9aRS)-7-[2,6-difluoro-4-(2-phenylethynyl)phenyl]-9a-methyl-2-(pyrimidin-4-ylmethyl)-4,9-dihydro-3H-pyrazino[1,2-c]pyrimidine-1,6,8-trione] was tested, and the Emax was 96% and the EC50 was 142 nM.

In the case of Cn1cc(CN2CCN3C(=O)N(c4c(F)cc(C#Cc5ccccc5)cc4F)C(=O)CC3(C)C2=O)cn1 (racemic) [Example 96, (9aRS)-7-[2,6-difluoro-4-(2-phenylethynyl)phenyl]-9a-methyl-2-[(1-methylpyrazol-4-yl)methyl]-4,9-dihydro-3H-pyrazino[1,2-c]pyrimidine-1,6,8-trione], the Emax is reported as 151% and the EC50 is reported as 214 nM.

For COCC12CC(=O)N(c3c(F)cc(C#Cc4ccccc4)cc3F)C(=O)N1CCN(c1cccnc1)C2=O (racemic) [Example 102, (9aRS)-7-[2,6-difluoro-4-(2-phenylethynyl)phenyl]-9a-(methoxymethyl)-2-(3-pyridyl)-4,9-dihydro-3H-pyrazino[1,2-c]pyrimidine-1,6,8-trione], the Emax was 136% and the EC50 was 129 nM.

With COCC12CC(=O)N(c3c(F)cc(C#Cc4ccccc4)cc3F)C(=O)N1CCN(c1cnn(C)c1)C2=O (racemic) [Example 104, (9aRS)-7-[2,6-difluoro-4-(2-phenylethynyl)phenyl]-9a-(methoxymethyl)-2-(1-methylpyrazol-4-yl)-4,9-dihydro-3H-pyrazino[1,2-c]pyrimidine-1,6,8-trione] the Emax was 148% and the EC50 was 273 nM.

Work on CC12CC(=O)N(c3ccc(C#Cc4ccccc4)cc3F)C(=O)N1CCN(c1cccnc1)C2=O (racemic) [Example 108, (9aRS)-7-[2-fluoro-4-(2-phenylethynyl)phenyl]-9a-methyl-2-(3-pyridyl)-4,9-dihydro-3H-pyrazino[1,2-c]pyrimidine-1,6,8-trione] yielded an Emax of 103% and an EC50 of 267 nM.

Work on C[C@@]12CC(=O)N(c3c(F)cc(C#Cc4ccccc4)cc3F)C(=O)N1CCN(c1ccccn1)C2=O [Example 5, (9aS)-7-[2,6-difluoro-4-(2-phenylethynyl)phenyl]-9a-methyl-2-(2-pyridyl)-4,9-dihydro-3H-pyrazino[1,2-c]pyrimidine-1,6,8-trione] yielded an Emax of 92% and an EC50 of 46 nM.

In the case of C[C@@]12CC(=O)N(c3c(F)cc(C#Cc4ccccc4)cc3F)C(=O)N1CCN(c1cccnc1)C2=O [Example 7, (9aS)-7-[2,6-difluoro-4-(2-phenylethynyl)phenyl]-9a-methyl-2-(3-pyridyl)-4,9-dihydro-3H-pyrazino[1,2-c]pyrimidine-1,6,8-trione], the Emax is reported as 126% and the EC50 is reported as 73 nM.

C[C@@]12CC(=O)N(c3c(F)cc(C#Cc4ccccc4)cc3F)C(=O)N1CCN(c1ccncc1)C2=O [Example 9, (9aS)-7-[2,6-difluoro-4-(2-phenylethynyl)phenyl]-9a-methyl-2-(4-pyridyl)-4,9-dihydro-3H-pyrazino[1,2-c]pyrimidine-1,6,8-trione] was tested, and the Emax was 85% and the EC50 was 29 nM.

Cc1ccnc(N2CCN3C(=O)N(c4c(F)cc(C#Cc5ccccc5)cc4F)C(=O)C[C@@]3(C)C2=O)c1 [Example 13, (9aS)-7-[2,6-difluoro-4-(2-phenylethynyl)phenyl]-9a-methyl-2-(4-methyl-2-pyridyl)-4,9-dihydro-3H-pyrazino[1,2-c]pyrimidine-1,6,8-trione] showed an Emax of 148% and an EC50 of 131 nM.

Cc1cncc(N2CCN3C(=O)N(c4c(F)cc(C#Cc5ccccc5)cc4F)C(=O)C[C@@]3(C)C2=O)c1 [Example 15, (9aS)-7-[2,6-difluoro-4-(2-phenylethynyl)phenyl]-9a-methyl-2-(5-methyl-3-pyridyl)-4,9-dihydro-3H-pyrazino[1,2-c]pyrimidine-1,6,8-trione] showed an Emax of 90% and an EC50 of 152 nM.
